Assay results as given in PubChem BioAssay AID220 (DTP/NCI, 2004).
“And” between values parts separate entries of the source, which are not always exact repeats. Equal values may be shown once. Records with an inconclusive call do not appear.

Tested on: CD8F1 mice, subcutaneous mammary adenocarcinoma, T/C%
Assay: NCI In Vivo Anticancer Drug Screen. Data for tumor model Mammary Adenocarcinoma CD8F1 (subcutaneous) in CD8F1
Conditions: higher = larger tumour
Procedure, shortened: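 Tumor-bearing mice, transplantable model; readout survival or tumor size; value = treated (T) / vehicle control (C).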

[1] = endpoint: median tumor weight (est.), dose: 12.5 mg/kg/injection, schedule: Q07DX005 (ip), vehicle: Klucel (hydroxypropylcellulose) (HPC)
[2] = endpoint: median tumor weight (est.), dose: 50.0 mg/kg/injection, schedule: Q07DX005 (ip), vehicle: Klucel (hydroxypropylcellulose) (HPC)
[3] = endpoint: median tumor weight (est.), dose: 100.0 mg/kg/injection, schedule: Q07DX005 (ip), vehicle: Klucel (hydroxypropylcellulose) (HPC)
[4] = endpoint: median tumor weight (est.), dose: 6.25 mg/kg/injection, schedule: Q07DX005 (ip), vehicle: Klucel (hydroxypropylcellulose) (HPC)
[5] = endpoint: median tumor weight change, dose: 125.0 mg/kg/injection, schedule: Q01DX001 (ip), vehicle: Klucel (hydroxypropylcellulose) (HPC)
[6] = endpoint: median tumor weight change, dose: 250.0 mg/kg/injection, schedule: Q01DX001 (ip), vehicle: Klucel (hydroxypropylcellulose) (HPC)
[7] = endpoint: median tumor weight (est.), dose: 10.0 mg/kg/injection, schedule: Q07DX005 (ip), vehicle: Klucel (hydroxypropylcellulose) (HPC)
[8] = endpoint: median tumor weight (est.), dose: 20.0 mg/kg/injection, schedule: Q07DX005 (ip), vehicle: Klucel (hydroxypropylcellulose) (HPC)

Clc1ccc(C(c2ccccc2Cl)C(Cl)Cl)cc1 (stereo unspecified)
T/C [1]: 124 % of control | T/C (endpoint: median tumor weight (est.), dose: 25.0 mg/kg/injection, schedule: Q07DX005 (ip), vehicle: Klucel (hydroxypropylcellulose) (HPC)): 118 % of control | T/C [2]: 175 % of control | T/C [3]: 92 % of control

COc1c(CNC(=O)CCl)cc2[nH]c(C)cc2c1CNC(=O)CCl
T/C [4]: 92 % of control | T/C [1]: 67 % of control | T/C [2]: 97 % of control | T/C [3]: 55 % of control | T/C (endpoint: median tumor weight (est.), dose: 200.0 mg/kg/injection, schedule: Q07DX005 (ip), vehicle: Klucel (hydroxypropylcellulose) (HPC)): 57 % of control | T/C [5]: 106 % of control | T/C [6]: 108 % of control

O=C(NC/C(Cl)=C/Cl)Oc1cccc2ccccc12
T/C (endpoint: mean tumor weight, dose: 0.78 mg/kg/injection, schedule: Q07DX004 (ip), vehicle: saline): 78 % of control | T/C (endpoint: mean tumor weight, dose: 1.56 mg/kg/injection, schedule: Q07DX004 (ip), vehicle: saline): 91 % of control | T/C (endpoint: mean tumor weight, dose: 3.12 mg/kg/injection, schedule: Q07DX004 (ip), vehicle: saline): 112 % of control | T/C (endpoint: mean tumor weight, dose: 6.25 mg/kg/injection, schedule: Q07DX004 (ip), vehicle: saline): 72 % of control | T/C (endpoint: mean tumor weight, dose: 12.5 mg/kg/injection, schedule: Q07DX004 (ip), vehicle: saline): 58 % of control

CC(=O)OC1C(O)C(C)OC(OC2C(OC(=O)C3CCC4C(C3)OC3(CC(OC(=O)/C=C/c5ccccc5)C(C)CO3)C43CO3)OC(C)C(O)C2OC(C)=O)C1O (stereo unspecified)
T/C (endpoint: median tumor weight change, dose: 10.0 mg/kg/injection, schedule: Q01DX001 (ip), vehicle: distilled water + Tween-80): 107 % of control | T/C (endpoint: median tumor weight change, dose: 40.0 mg/kg/injection, schedule: Q01DX001 (ip), vehicle: distilled water + Tween-80): 100 % of control | T/C (endpoint: median tumor weight change, dose: 80.0 mg/kg/injection, schedule: Q01DX001 (ip), vehicle: distilled water + Tween-80): 110 % of control

CC(=O)Nc1ccc(/C=N/NC(N)=S)cc1
T/C (endpoint: median tumor weight change, dose: 31.25 mg/kg/injection, schedule: Q01DX001 (ip), vehicle: Klucel (hydroxypropylcellulose) (HPC)): 96 % of control | T/C (endpoint: median tumor weight change, dose: 62.5 mg/kg/injection, schedule: Q01DX001 (ip), vehicle: Klucel (hydroxypropylcellulose) (HPC)): 84 % of control | T/C [5]: 103 % of control | T/C [6]: 48 % of control | T/C (endpoint: median tumor weight change, dose: 500.0 mg/kg/injection, schedule: Q01DX001 (ip), vehicle: Klucel (hydroxypropylcellulose) (HPC)): 99 % of control

CNC(=O)OCc1c(COC(=O)NC)c(-c2ccccc2)n(C)c1-c1ccccc1
T/C (endpoint: median tumor weight change, dose: 31.25 mg/kg/injection, schedule: Q01DX001 (ip), vehicle: distilled water + Tween-80): 54 % of control

S=c1[nH]cc2cnccn12
T/C (endpoint: median tumor weight (est.), dose: 12.5 mg/kg/injection, schedule: Q07DX005 (ip), vehicle: saline with Tween-80): 92 % of control | T/C (endpoint: median tumor weight (est.), dose: 25.0 mg/kg/injection, schedule: Q07DX005 (ip), vehicle: saline with Tween-80): 105 % of control | T/C (endpoint: median tumor weight (est.), dose: 100.0 mg/kg/injection, schedule: Q07DX005 (ip), vehicle: saline with Tween-80): 85 % of control | T/C (endpoint: median tumor weight (est.), dose: 200.0 mg/kg/injection, schedule: Q07DX005 (ip), vehicle: saline with Tween-80): 56 % of control

O=C(Nc1cccc2c(OC(=O)C(Cl)Cl)c(N=Nc3ccc(S(=O)(=O)Nc4nccs4)cc3)cc(N=Nc3ccc(S(=O)(=O)Nc4nccs4)cc3)c12)C(Cl)Cl (tested in a mixture with another compound)
T/C (endpoint: median tumor weight change, dose: 250.0 mg/kg/injection, schedule: Q01DX001 (ip), vehicle: saline with Tween-80): 106 % of control | T/C (endpoint: median tumor weight change, dose: 500.0 mg/kg/injection, schedule: Q01DX001 (ip), vehicle: saline with Tween-80): 124 % of control | T/C (endpoint: median tumor weight change, dose: 1000.0 mg/kg/injection, schedule: Q01DX001 (ip), vehicle: saline with Tween-80): 37 % of control

CC/C(=C(/CC)c1ccc(O)cc1)c1ccc(O)cc1
T/C (endpoint: median tumor weight (est.), dose: 12.5 mg/kg/injection, schedule: Q07DX005 (ip), vehicle: water): 70 % of control | T/C (endpoint: median tumor weight (est.), dose: 25.0 mg/kg/injection, schedule: Q07DX005 (ip), vehicle: water): 66 % of control | T/C (endpoint: median tumor weight (est.), dose: 50.0 mg/kg/injection, schedule: Q07DX005 (ip), vehicle: water): 111 % of control | T/C (endpoint: median tumor weight (est.), dose: 100.0 mg/kg/injection, schedule: Q07DX005 (ip), vehicle: water): 101 % of control | T/C (endpoint: median tumor weight (est.), dose: 200.0 mg/kg/injection, schedule: Q07DX005 (ip), vehicle: water): 49 % of control

O=C(O)[C@H](Cc1ccccc1)N1C(=O)c2ccccc2C1=O
T/C (endpoint: median tumor weight change, dose: 62.5 mg/kg/injection, schedule: Q01DX001 (ip), vehicle: DMSO): 75 % of control | T/C (endpoint: median tumor weight change, dose: 125.0 mg/kg/injection, schedule: Q01DX001 (ip), vehicle: DMSO): 116 % of control | T/C (endpoint: median tumor weight change, dose: 250.0 mg/kg/injection, schedule: Q01DX001 (ip), vehicle: DMSO): 68 % of control | T/C (endpoint: median tumor weight change, dose: 500.0 mg/kg/injection, schedule: Q01DX001 (ip), vehicle: DMSO): 59 % of control

CCCCC1CCCCCCc2[nH]c(/C=C3\N=C(c4ccc[nH]4)C=C3OC)cc21 (stereo unspecified)
T/C (endpoint: median tumor weight change, dose: 0.38 mg/kg/injection, schedule: Q01DX001 (ip), vehicle: saline with Tween-80): 92 % of control | T/C (endpoint: median tumor weight change, dose: 0.75 mg/kg/injection, schedule: Q01DX001 (ip), vehicle: saline with Tween-80): 78 % of control | T/C (endpoint: median tumor weight change, dose: 1.5 mg/kg/injection, schedule: Q01DX001 (ip), vehicle: saline with Tween-80): 104 % of control | T/C (endpoint: median tumor weight change, dose: 3.0 mg/kg/injection, schedule: Q01DX001 (ip), vehicle: saline with Tween-80): 102 % of control

CC1OC(OC2CC(O)(C(=O)CO)Cc3c(O)c4c(c(O)c32)C(=O)c2ccccc2C4=O)CC(N)C1O (stereo unspecified)
T/C (endpoint: mean tumor weight, dose: 0.12 mg/kg/injection, schedule: Q07DX006 (ip), vehicle: saline): 40 % of control | T/C (endpoint: mean tumor weight, dose: 0.5 mg/kg/injection, schedule: Q07DX006 (ip), vehicle: saline): 1 % of control | T/C (endpoint: median tumor weight change, dose: 0.31 mg/kg/injection, schedule: Q01DX001 (ip), vehicle: water): 67 % of control | T/C (endpoint: median tumor weight change, dose: 0.62 mg/kg/injection, schedule: Q01DX001 (ip), vehicle: water): 37 % of control | T/C (endpoint: median tumor weight change, dose: 1.25 mg/kg/injection, schedule: Q01DX001 (ip), vehicle: water): 26 % of control and 28 % of control

C[n+]1c(-c2cccc(OCCOCCOc3cccc(-c4c5cc(N)ccc5c5ccc(N)cc5[n+]4C)c3)c2)c2cc(N)ccc2c2ccc(N)cc21
T/C (endpoint: median tumor weight change, dose: 5.0 mg/kg/injection, schedule: Q01DX001 (ip), vehicle: water): 63 % of control | T/C (endpoint: median tumor weight change, dose: 10.0 mg/kg/injection, schedule: Q01DX001 (ip), vehicle: water): 72 % of control | T/C (endpoint: median tumor weight change, dose: 40.0 mg/kg/injection, schedule: Q01DX001 (ip), vehicle: water): 60 % of control

Cc1[nH]c(=O)[nH]c(=O)c1N(CCF)CCCl
T/C (endpoint: median tumor weight (est.), dose: 2.5 mg/kg/injection, schedule: Q07DX005 (ip), vehicle: Klucel (hydroxypropylcellulose) (HPC)): 113 % of control | T/C (endpoint: median tumor weight (est.), dose: 5.0 mg/kg/injection, schedule: Q07DX005 (ip), vehicle: Klucel (hydroxypropylcellulose) (HPC)): 97 % of control | T/C [7]: 79 % of control | T/C [8]: 63 % of control | T/C (endpoint: median tumor weight change, dose: 100.0 mg/kg/injection, schedule: Q01DX001 (ip), vehicle: Klucel (hydroxypropylcellulose) (HPC)): 68 % of control

C=CS(C=C)=NS(=O)(=O)c1ccc(C)cc1
T/C (endpoint: median tumor weight (est.), dose: 3.12 mg/kg/injection, schedule: Q07DX005 (ip), vehicle: Klucel (hydroxypropylcellulose) (HPC)): 94 % of control | T/C [4]: 101 % of control | T/C [1]: 89 % of control

C[C@]12CC[C@H]3[C@@H](CCC4=C[C@@H](OC5OCC(OC6OC(CO)C(O)C(O)C6O)C(O)C5O)CC[C@@]43C=O)[C@@]1(O)CCC2C1=CC(=O)OC1 (stereo partly specified)
T/C (endpoint: median tumor weight (est.), dose: 0.62 mg/kg/injection, schedule: Q07DX005 (ip), vehicle: Klucel (hydroxypropylcellulose) (HPC)): 63 % of control | T/C (endpoint: median tumor weight (est.), dose: 1.25 mg/kg/injection, schedule: Q07DX005 (ip), vehicle: Klucel (hydroxypropylcellulose) (HPC)): 85 % of control and 89 % of control | T/C [7]: 93 % of control and 108 % of control | T/C [8]: 106 % of control | T/C (endpoint: median tumor weight (est.), dose: 40.0 mg/kg/injection, schedule: Q07DX005 (ip), vehicle: Klucel (hydroxypropylcellulose) (HPC)): 93 % of control

CC[n+]1ccc(Nc2ccc(NC(=O)c3ccc(C(=O)Nc4ccc(Nc5cc[n+](CC)c(N)n5)cc4)cc3)cc2)nc1N
T/C (endpoint: median tumor weight (est.), dose: 6.25 mg/kg/injection, schedule: Q07DX005 (ip), vehicle: suspension in saline): 257 % of control | T/C (endpoint: median tumor weight (est.), dose: 25.0 mg/kg/injection, schedule: Q07DX005 (ip), vehicle: suspension in saline): 77 % of control | T/C (endpoint: median tumor weight (est.), dose: 50.0 mg/kg/injection, schedule: Q07DX005 (ip), vehicle: suspension in saline): 45 % of control | T/C (endpoint: median tumor weight (est.), dose: 100.0 mg/kg/injection, schedule: Q07DX005 (ip), vehicle: suspension in saline): 41 % of control | T/C (endpoint: median tumor weight (est.), dose: 200.0 mg/kg/injection, schedule: Q07DX005 (ip), vehicle: suspension in saline): 20 % of control
